Assay results published in PMC3375280 (PLoS ONE, 2012).
Numbering of substitutions follows the chain as printed.

Columns and labels:
[1] = target: T1, AT1 Y113A mutant receptor (Rattus norvegicus, UniProt P25095, Y113A); test: competition binding, Y113A mutant; conditions: for Kd ratio relative to WT (in parentheses): Y113A / WT; for Kd: Y113A, COS1 membranes, read-out: Binding affinity (Kd)
T1 construct: expressed in transfected cells; host or cells: COS1
T1 sequence (P25095 1-359 Y113A): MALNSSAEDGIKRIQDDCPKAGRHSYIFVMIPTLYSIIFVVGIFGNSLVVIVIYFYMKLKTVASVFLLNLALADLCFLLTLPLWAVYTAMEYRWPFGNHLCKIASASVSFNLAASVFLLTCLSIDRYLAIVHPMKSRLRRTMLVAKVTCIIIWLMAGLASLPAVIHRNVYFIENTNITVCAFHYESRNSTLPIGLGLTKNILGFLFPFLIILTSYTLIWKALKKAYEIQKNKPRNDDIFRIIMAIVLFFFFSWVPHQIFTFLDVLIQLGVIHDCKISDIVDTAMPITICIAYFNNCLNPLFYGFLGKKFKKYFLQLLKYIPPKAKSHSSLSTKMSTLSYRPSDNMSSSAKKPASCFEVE
Procedure: (§1) The Kd and Bmax values of receptor binding were determined by ^125I-[Sar^1, Ile^8] […] Membranes expressing the WT or mutant AT1 receptors were incubated with 100 pM ^125I-[Sar^1, Ile^8] […] The binding reaction was terminated by filtering the incubation mixture through Whatman GF/C glass filters, and the residues were extensively washed further with binding buffer. The bound ligand fraction was determined from the counts per minute (cpm) remaining on the membrane. Binding kinetics values were determined as previously described.

[2] = target: T2, AT1 C76A/S115C/C289A mutant receptor (Rattus norvegicus, UniProt P25095, C289A/C76A/S115C); test: competition binding, C76A/S115C/C289A mutant; conditions: for Kd ratio relative to WT (in parentheses): C76A/S115C/C289A / WT; for Kd: C76A/S115C/C289A, COS1 membranes, read-out: Binding affinity (Kd)
T2 construct: expressed in transfected cells; host or cells: COS1 cells (membranes)
T2 sequence (P25095 1-359 C76A/S115C/C289A): T1 sequence (P25095 1-359 Y113A) with C76A, A113Y, S115C, C289A
Procedure: as §1

[3] = target: T3, AT1 C76A/V116C/C289A mutant receptor (Rattus norvegicus, UniProt P25095, C289A/C76A/V116C); test: competition binding, C76A/V116C/C289A mutant; conditions: for Kd ratio relative to WT (in parentheses): C76A/V116C/C289A / WT; for Kd: C76A/V116C/C289A, COS1 membranes, read-out: Binding affinity (Kd)
T3 construct: expressed in transfected cells; host or cells: COS1 cells (membranes)
T3 sequence (P25095 1-359 C76A/V116C/C289A): T1 sequence (P25095 1-359 Y113A) with C76A, A113Y, V116C, C289A
Procedure: as §1

[4] = target: T4, AT1 C76A/A114C/C289A mutant receptor (Rattus norvegicus, UniProt P25095, A114C/C289A/C76A); test: competition binding, C76A/A114C/C289A mutant; conditions: for Kd ratio relative to WT (in parentheses): C76A/A114C/C289A / WT; for Kd: C76A/A114C/C289A, COS1 membranes, read-out: Binding affinity (Kd)
T4 construct: expressed in transfected cells; host or cells: COS1 cells (membranes)
T4 sequence (P25095 1-359 C76A/A114C/C289A): T1 sequence (P25095 1-359 Y113A) with C76A, A113Y, A114C, C289A
Procedure: as §1

[5] = target: T5, AT1 C76A/V108C/C289A mutant receptor (Rattus norvegicus, UniProt P25095, C289A/C76A/V108C); test: competition binding, C76A/V108C/C289A mutant; conditions: for Kd ratio relative to WT (in parentheses): C76A/V108C/C289A / WT; for Kd: C76A/V108C/C289A, COS1 membranes, read-out: Binding affinity (Kd)
T5 construct: expressed in transfected cells; host or cells: COS1
T5 sequence (P25095 1-359 C76A/V108C/C289A): T1 sequence (P25095 1-359 Y113A) with C76A, V108C, A113Y, C289A
Procedure: as §1

Row | SMILES | Kd ratio relative to WT (in parentheses) [1] | Kd [1] | Kd ratio relative to WT (in parentheses) [2] | Kd [2] | Kd ratio relative to WT (in parentheses) [3] | Kd [3] | Kd ratio relative to WT (in parentheses) [4] | Kd [4] | Kd ratio relative to WT (in parentheses) [5] | Kd [5]
1 | CCCc1nc(C(C)(C)O)c(C(N)=O)n1Cc1ccc(-c2cc(Cc3ccc(O)cc3)ccc2-c2nnn[nH]2)cc1 [R794847] | 38 fold | 1.8 ± 0.205 µM | 14 fold | 0.657 ± 0.114 µM | 0.8 fold | 0.039 ± 0.003 µM | 2.7 fold | 0.128 ± 0.015 µM | 8 fold | 0.391 ± 0.054 µM
2 | CCCc1nc(C(C)(C)O)c(C(N)=O)n1Cc1ccc(-c2ccccc2-c2nnn[nH]2)cc1 [R239470] | 183 fold | 0.146 ± 0.015 µM | 5.3 fold | 0.0042 ± 0.0016 µM | 3.1 fold | 0.0025 ± 0.001 µM | 2.0 fold | 0.0016 ± 0.0007 µM | 13 fold | 0.01 ± 0.002 µM
3 | CCCc1nc(C(C)(C)O)c(C(=O)O)n1Cc1ccc(-c2ccccc2-c2nnn[nH]2)cc1 [Olmesartan, olmesartan, reference compound] | 5.2 fold | 0.012 ± 0.003 µM | 2.8 fold | 0.0065 ± 0.0018 µM | 2.7 fold | 0.0062 ± 0.0017 µM | 2.4 fold | 0.0055 ± 0.0026 µM | 14 fold | 0.032 ± 0.001 µM
